Reference: patent publication US20180344798A1, “TOPICALLY ACTIVE PEPTIDES FOR TREATING COSMETIC AND DERMATOLOGICAL CONDITIONS” (priority 2017, published 2018)
“And” between values parts separate entries of the source, which are not always exact repeats. Identical values can stand only once.

How the values were obtained:
[1] = aqueous solutions; U.S. Pat. No. 7,390,788; cited from earlier work
[2] = route of dosing not described; U.S. Pat. No. 5,798,335; cited from earlier work
[3] = system: plasma inflammatory cytokines; details: Ruff, cited from earlier work
[4] = system: normal human epidermal keratinocytes; details: Hu, Paoletti, 2013; cited from earlier work
[5] = topical oil/water lotion 50 μg/ml, 2× per day, 28 days
Description: Self-reported “Severity Scores” on a scale of 1-10 (with 10 being most severe) were recorded in a daily symptom report form to record the symptom score and compliance. The change from baseline is plotted for the day 0, 7, 14, 21, 28 and 35 (one week “off” treatment) symptom scores.
Topical administration of all-D-TTNYT (SEQ ID NO: 1) was formulated in an oil/water lotion consisting of deionized water, caprylic/capric triglyceride, polyglyceryl-6-stearate, polyglyceryl-6-behenate, cetearyl alcohol, and glyceryl stearate.

[6] = system: DC maturation caused by LL37 (IGF-1R)
[7] = system: rodent spinal cord tissue; details: Rat, Padi, 2012; cited from earlier work
[8] = system: TLR4-mediated maturation of dendritic cells
Description: To determine whether all-D-TTNYT (SEQ ID NO: 1) blocks maturation of dendritic cells human PBMC's were isolated from peripheral blood by Ficoll-Paque centrifugation and then monocytes were isolated by negative selection using immunobeads (Miltenyi). Human monocyte derived immature dendritic cells (iDCs) were then generated by treating monocytes with GM-CSF/IL4 for 5 days.
The iDCs were treated with all-D-TTNYT (SEQ ID NO: 1) at 10^−12 M for 30 min. After 30 min LPS (100 ng/ml) was added to the cells and cells were analyzed after 48 hrs for surface maturation markers using fluorescent labeled antibodies by flow cytometry. […] The surface markers control T cell activation and localization in tissues. DCs, like microglia, are derived from differentiated monocytes and serve as the innate and adaptive sentinel cells of the skin and brain, respectively. Blockade of DC or microglial activation would suppress inflammation.

response to bradykinin = details: amounts up to 50,000 times the standard challenge of bradykinin; cited from earlier work
[9] = Hu, DAPTA administered for 7 weeks
[10] = Hu dendritic cells, peptide 10^-12 M 30 min, then LPS 100 ng/ml, 48 hrs, unpublished

Dalal-peptide T-amide [DAPTA]
aggregation and loss of potency upon storage [1]: high propensity for DAPTA to aggregate and lose potency
improvement of eczema/dermatitis in dogs [2]: Improvement in two dogs with dermatitis, mild improvement in five cases of erythema, and no improvement in ten cases
IL-1 change [3, 9]: decrease
IL-6 change [3, 9]: decrease
IL-8 change [3, 9]: decrease
TNFα change [3, 9]: decrease
anti-inflammatory cytokine IL-10 (M2-type) change ([3]; human subjects, DAPTA for 7 weeks): increased
ICAM1 change [4]: decrease
IL-6 change [4]: decrease
IL-8 change [4]: decrease
IL-23 change [4]: decrease
pSTAT3 change [4]: decrease

all-D-TTNYT
self-reported Severity Scores in dermatocosmetic conditions ([5]; five subjects, scale 1-10): improved
appearance of rosacea, atopic dermatitis, and psoriasis ([5]; subject reports): improvements in the appearance of rosacea, atopic dermatitis, and psoriasis
effect on DC maturation of the four markers caused by LL37 [6]: no effect
IL-1β change [7]: decrease
IL-6 change [7]: decrease
CD58 change [8, 10]: decrease
CD86 change [8, 10]: decrease
DR change [8, 10]: decrease
ICAM1 change [8, 10]: decrease
expression of maturation markers CD86, HLA-DR, CD58 and ICAM1 ([8]; iDCs pre-treated with peptide, then LPS, flow cytometry): reduces expression of all the maturation markers

all-D-TTNYT-NH2
Timed Walk, Post (after topical lotion 50 μg/ml, 2× per day to feet, 28 days, measured fixed distance): 24 s
Pain Score, Post (after topical lotion 50 μg/ml, 2× per day to feet, 28 days, scale 1-10, per subject): 3
Timed Walk, Pre (before treatment (baseline), measured fixed distance): 48 s
Pain Score, Pre (before treatment (baseline), self-reported scale 1-10, per subject): 7 and 6
pain sensitivity on self-reported Severity Scores (two subjects with diabetic neuropathy symptoms, topical lotion 50 μg/ml, 2× per day): Reduced pain sensitivity

all-D-bradykinin
inhibition of the response to bradykinin or bradykinin-like effect (response to bradykinin): neither any inhibition of the response to bradykinin, or any bradykinin-like effect
